# Data as given in patent US8962549B2, “Polymeric benzyl carbonate-derivatives” (Baxter International Inc., priority 2008, dated 2015).
# Experiment: Release of tryptophan from PEG-tryptophan: incubation in cleavage buffer at 37° C., HPLC analysis
# Type: physicochemical
# Conditions: detection at 280 nm
# Method: A 0.10 mL aliquot of the PEGylated tryptophan reaction solution from Example 7 was diluted with 0.60 mL PBS buffer (0.10 M, NaCl, 0.10 M, Glycine 0.10M, pH 7.5) and incubated at 37° C. in an oven. Aliquots of 0.10 mL were withdrawn at incubation intervals of 2, 7, 32 and 102 hours, and were quenched with 10 μl of HCl (1.0 N diluted with 0.4 mL 20% acetonitrile containing 0.01% trifluoroacetic acid) for HPLC analysis (0.10 mL injection).
# The above procedure was repeated using a cleavage solution with a pH of 8.5 and incubation intervals of 1, 6, 24, and 32 hours.
# Both the PEG-tryptophan (Example 7) and cleavage samples were analyzed on C-18 reversed-phase HPLC with detection at 280 nm. The HPLC conditions are the following: C-18 column (Waters Symmetry, 4.6×250 mm), flow rate of 1.0 mL/min, gradient of acetonitrile 20% to 80% over 15 minutes followed by 10 minutes of washing at 80% acetonitrile (all contain 0.01% trifluoroacetic acid).
structure (smiles),measurement,setting,value
N[C@@H](Cc1c[nH]c2ccccc12)C(=O)O [Tryptophan],contents (HPLC integration area) of cleavage reaction,"pH 7.5 PBS with glycine 0.10 M, incubation time 2 hours",596
same,contents (HPLC integration area) of cleavage reaction,"pH 7.5 PBS with glycine 0.10 M, incubation time 7 hours",647
same,contents (HPLC integration area) of cleavage reaction,"pH 7.5 PBS with glycine 0.10 M, incubation time 32 hours",1329
same,contents (HPLC integration area) of cleavage reaction,"pH 7.5 PBS with glycine 0.10 M, incubation time 102 hours",2955
same,contents (HPLC integration area) of cleavage reaction,"pH 8.5 cleavage solution, incubation time 1 hour",735
same,contents (HPLC integration area) of cleavage reaction,"pH 8.5 cleavage solution, incubation time 6 hours",1183
same,contents (HPLC integration area) of cleavage reaction,"pH 8.5 cleavage solution, incubation time 24 hours",2442
same,contents (HPLC integration area) of cleavage reaction,"pH 8.5 cleavage solution, incubation time 32 hours",2498
